Assay results published in ChEMBL document CHEMBL1201862, “PubChem BioAssay data set” (2004).
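48-hour exposure; five concentrations; linearly interpolated endpoints. The concentration for 50% growth inhibition is given as GI50.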 Activity calls are given as the source filed them. Rule as the data show it: active = GI50 up to about 1.1 µM and inactive = higher.

Key:
Assay in all cases: DTP human tumour cell line panel, 48 h
[1] = tested on: 786-0
[2] = tested on: A498
[3] = tested on: A549
[4] = tested on: ACHN
[5] = tested on: BT-549
[6] = tested on: CAKI-1
[7] = tested on: CCRF-CEM
[8] = tested on: COLO 205
[9] = tested on: DU-145
[10] = tested on: EKVX
[11] = tested on: HCC 2998
[12] = tested on: HCT-116
[13] = tested on: HCT-15
[14] = tested on: HL-60
[15] = tested on: HOP-62
[16] = tested on: HOP-92
[17] = tested on: HT-29
[18] = tested on: Hs-578T
[19] = tested on: IGROV-1
[20] = tested on: K562
[21] = tested on: KM12
[22] = tested on: LOX IMVI
[23] = tested on: M14
[24] = tested on: MCF7
[25] = tested on: MDA-MB-231
[26] = tested on: MDA-MB-435
[27] = tested on: MDA-N
[28] = tested on: MOLT-4
[29] = tested on: Malme-3M
[30] = tested on: NCI-H226
[31] = tested on: NCI-H23
[32] = tested on: NCI-H460
[33] = tested on: NCI-H522
[34] = tested on: NCI/ADR-RES
[35] = tested on: OVCAR-3
[36] = tested on: OVCAR-4
[37] = tested on: OVCAR-5
[38] = tested on: OVCAR-8
[39] = tested on: PC-3
[40] = tested on: RPMI-8226
[41] = tested on: RXF 393
[42] = tested on: SF-268
[43] = tested on: SF-295
[44] = tested on: SF-539
[45] = tested on: SK-MEL-28
[46] = tested on: SK-MEL-2
[47] = tested on: SK-MEL-5
[48] = tested on: SK-OV-3
[49] = tested on: SN12C
[50] = tested on: SNB-19
[51] = tested on: SNB-75
[52] = tested on: SR
[53] = tested on: SW-620
[54] = tested on: T47D
[55] = tested on: TK-10
[56] = tested on: U-251
[57] = tested on: UACC-257
[58] = tested on: UACC-62
[59] = tested on: UO-31

Measured: GI50

Nc1nc(Cl)c(C=O)c(NCC2(CO)CCC2)n1
inactive: [1] 76 µM | [2] 25.1 µM | [3] 91.6 µM | [4] 37.8 µM | [5] 28.6 µM | [6] 13.6 µM | [7] 12.9 µM | [8] 25.7 µM | [9] 31.1 µM | [10] 17.6 µM | [11] 9.48 µM | [12] 17.7 µM | [14] 4.5 µM | [15] 25.4 µM | [16] 15.3 µM | [17] 31.4 µM | [18] 22.2 µM | [19] 12.3 µM | [20] 3.83 µM | [21] 43.1 µM | [22] 12.4 µM | [23] 26.5 µM | [24] > 100 µM | [25] 22.9 µM | [26] 28.8 µM | [27] 21.3 µM | [28] 18.3 µM | [29] 43.1 µM | [30] 15.4 µM | [31] 26.4 µM | [32] 31 µM | [33] 3.56 µM | [34] 40 µM | [35] 17.5 µM | [36] 14.3 µM | [37] > 100 µM | [38] 15 µM | [39] 17.7 µM | [40] 39.7 µM | [41] 17.8 µM | [42] 16.6 µM | [43] 22.8 µM | [44] 32.7 µM | [45] 34.8 µM | [46] 14.5 µM | [47] 14.5 µM | [48] 27.2 µM | [49] 45.2 µM | [50] 17.1 µM | [51] 24 µM | [52] 3.21 µM | [53] 28.2 µM | [54] 33.7 µM | [55] > 100 µM | [56] 15.2 µM | [57] 24.8 µM | [58] 14.3 µM | [59] 21.8 µM
11.8 µM: [13]

COc1ccccc1NC(=S)N/N=C/c1ccccn1
inactive: [5] 1.77 µM | [9] 1.88 µM | [11] 2.37 µM | [16] 1.26 µM | [18] 14.3 µM | [26] 1.61 µM | [27] 1.29 µM | [30] 2.12 µM | [41] 10.9 µM | [45] 1.56 µM | [46] 2.54 µM | [50] 4.17 µM | [51] 3.37 µM
0.227 µM: [13]
active: [1] 0.157 µM | [2] 0.255 µM | [3] 0.564 µM | [4] 0.11 µM | [6] 0.0817 µM | [7] 0.276 µM | [8] 0.0352 µM | [10] 0.293 µM | [12] < 0.0204 µM | [14] 0.0214 µM | [15] 0.247 µM | [17] < 0.01 µM | [20] < 0.0187 µM | [21] 0.597 µM | [22] 0.0927 µM | [23] 0.0692 µM | [24] 0.0504 µM | [25] < 0.0166 µM | [28] 0.0115 µM | [29] 0.193 µM | [31] 0.0746 µM | [32] 0.495 µM | [33] < 0.0157 µM | [34] 0.0253 µM | [35] < 0.015 µM | [36] 0.619 µM | [37] 0.288 µM | [38] 0.131 µM | [39] 0.054 µM | [40] 0.0658 µM | [42] 0.191 µM | [43] 0.621 µM | [44] 0.91 µM | [47] 0.252 µM | [48] 0.446 µM | [49] 0.74 µM | [52] 0.71 µM | [53] 0.124 µM | [54] 0.0867 µM | [55] 0.367 µM | [56] 0.12 µM | [57] < 0.0318 µM | [58] 0.466 µM | [59] 0.296 µM

N#Cc1ccnc(C(=O)N2CCCC2C(=O)O)c1 (stereo not given)
> 100 µM: [13]
inactive: [1] > 100 µM | [2] > 100 µM | [3] > 100 µM | [4] > 100 µM | [5] > 100 µM | [6] > 100 µM | [7] > 100 µM | [8] > 100 µM | [9] > 100 µM | [10] > 100 µM | [11] > 100 µM | [12] > 100 µM | [14] > 100 µM | [15] > 100 µM | [16] > 100 µM | [17] > 100 µM | [18] > 100 µM | [19] > 100 µM | [20] > 82.8 µM | [21] > 100 µM | [22] > 100 µM | [23] > 100 µM | [24] > 100 µM | [25] > 100 µM | [26] > 100 µM | [27] > 100 µM | [28] > 100 µM | [29] > 100 µM | [30] > 100 µM | [31] > 100 µM | [32] > 100 µM | [33] > 100 µM | [34] > 100 µM | [35] > 100 µM | [36] > 100 µM | [37] > 100 µM | [38] > 100 µM | [39] > 100 µM | [40] > 100 µM | [41] > 100 µM | [42] > 100 µM | [43] > 100 µM | [44] > 100 µM | [45] > 100 µM | [46] > 100 µM | [47] > 100 µM | [49] > 100 µM | [50] > 100 µM | [51] > 100 µM | [52] > 100 µM | [53] > 100 µM | [54] > 100 µM | [55] > 100 µM | [56] > 100 µM | [57] > 100 µM | [58] > 100 µM | [59] > 100 µM
